Assay results reported in patent publication US20260294915A1, “COMBINATION THERAPY COMPRISING A MAT2A INHIBITOR AND A TOPOISOMERASE INHIBITOR, A SPLICING INHIBITOR SULFONAMIDE, OR A KIF18 INHIBITOR” (IDEAYA BIOSCIENCES, INC., priority 2023, published 2026).
Marks after values point to notes of the source that are not given here.

Columns and labels:
Assay in all cases: 10-day proliferation (CTG), SPLAM titration + 1000 nM Compound A, Bliss (Example 5; Tables 12-19)
Assay type in all cases: cell-based
[1] = test system: TCCSUP; set-up: key: −100 to 100; 0 = cell number at T0, <0 = cytotoxic; conditions: for GDI (growth death index), single agent Cmpd A: TCCSUP, 1000 nM Compound A
Experimental: (§1) A 10-day proliferation assay was performed in a panel of 5 MTAP-deficient and 2 wild type non-small cell lung and bladder cancer cell lines. Optimal cell seeding for all cell lines was determined by assessing the growth over a range of seeding densities in a 384-well format to identify conditions that permitted proliferation for 10 days. Cells were then plated at the optimal seeding density and treated with 20-point, two-fold dilution series of each of four structurally different SPLAMs in combination with a 1000 nM fixed concentration of Compound A. Single agent titrations for Compound A and each SPLAM were included for comparison. Concentrations tested for each SPLAM alone or in combination ranged from 0.04 nM to 20,000 nM. A plate of cells was harvested at the time of compound addition to quantify the number of cells at the start of the combination (T0). For cell quantification, the harvested cells were lysed with Promega CellTiter-Glo (CTG) reagent according to the manufacturer's protocol and the chemiluminescent signal was detected as described in Example 1 above. Cells were incubated with the drug combinations at 37° C. with 5% CO2 for 10 days. Cells were then lysed with CTG and the chemiluminescent signal was measured.
(§2) CTG values obtained after the 10-day treatment were background subtracted and expressed as a percent of the T0 value set at 100%. Data were plotted against compound concentration and fit with a four-parameter equation to generate single agent dose response curves. Percent inhibition was determined for each combination and single agent concentration compared to a DMSO control. In addition, the overall net growth or death of the cells was calculated and reported as a growth death index (GDI) value on a scale of −100 to 100 with the midpoint (0) being the number of cells at the beginning of the combination (T0).
(§3) Predicted inhibition was calculated using (Ea+Eb)−(Ea*Eb) where E equals the effect (inhibition) of each single agent (a and b). A difference between the observed inhibition percentage and the predicted inhibition percentage greater than 10% was considered synergistic. A Bliss score was only reported for combinations eliciting >20% growth inhibition (GDI value <80). Since Bliss is calculated based on growth inhibition, scores within cytotoxic dose ranges may not accurately reflect synergistic cytoxicity.
(§4) Synergy was measured across the Indisulam titration with 1000 nM Compound A by Bliss Independence analysis. Bliss scores >10 are indicated by “*” and are considered synergistic. […] Synergy as reported using Bliss may be underrepresented within cytotoxic dose ranges. Growth death index values are shown for the combination titration and each single agent Compound A (Cmpd A) and Indisulam on a scale of −100 to 100 with the midpoint (0) being the number of cells at the beginning of the combination (T0). Scores less than 0 are highlighted black and are representative of a cytotoxic response. Bliss and GDI values are shown for five MTAP-deficient cell lines: NCI-H520 (13A), TCCSUP (13B).
(§5) Synergy was measured across the E7820 titration with 1000 nM Compound A by Bliss Independence analysis. Bliss scores >10 are indicated by “*” and are considered synergistic. […] Synergy as reported using Bliss may be underrepresented within cytotoxic dose ranges. Growth death index values are shown for the combination titration and each single agent Compound A (Cmpd A) and Indisulam on a scale of −100 to 100 with the midpoint (0) being the number of cells at the beginning of the combination (T0). Scores less than 0 are indicated by “**” and are representative of a cytotoxic response. Bliss and GDI values are shown for five MTAP-deficient cell lines: NCI-H520 (15A), TCCSUP (15B).
(§6) Synergy was measured across the Chloroquinoxaline Sulfonamide titration with 1000 nM Compound A by Bliss Independence analysis. Bliss scores >10 are indicated by and are considered synergistic.

[2] = test system: NCI-H520; set-up: key: −100 to 100; 0 = cell number at T0, <0 = cytotoxic; conditions: for GDI (growth death index), single agent Cmpd A: NCI-H520, 1000 nM Compound A
Experimental: as §1, §2, §3, §4, §5, §6

[3] = test system: SW900; set-up: key: GDI scale -100 to 100; 0 = cell number at T0; <0 cytotoxic; conditions: for GDI: alone or + 1 uM Cmpd A; for GDI (growth death index), single agent Cmpd A: SW900, 1000 nM Compound A
Experimental: Synergy was measured across the Indisulam titration with 1000 nM Compound A by Bliss Independence analysis. Bliss scores >10 are indicated by “*” and are considered synergistic. […] Synergy as reported using Bliss may be underrepresented within cytotoxic dose ranges. Growth death index values are shown for the combination titration and each single agent Compound A (Cmpd A) and Indisulam on a scale of −100 to 100 with the midpoint (0) being the number of cells at the beginning of the combination (T0). Scores less than 0 are indicated with “**” and are representative of a cytotoxic response. Bliss and GDI values are shown for five MTAP-deficient cell lines: NCI-1H838 (12A), SW900 (12B), RT112/84 (12C), UMUC5 (121D), and UMUC11 (12E).
as §1, §2, §3
Synergy was measured across the E7820 titration with 1000 nM Compound A by Bliss Independence analysis. Bliss scores >10 are indicated by “*” and are considered synergistic. […] Synergy as reported using Bliss may be underrepresented within cytotoxic dose ranges. Growth death index values are shown for the combination titration and each single agent Compound A (Cmpd A) and Indisulam on a scale of −100 to 100 with the midpoint (0) being the number of cells at the beginning of the combination (T0). Scores less than 0 are indicated by “**” and are representative of a cytotoxic response. Bliss and GDI values are shown for five MTAP-deficient cell lines: NCI-1H838 (14A), SW900 (14B), RT112/84 (14C), UMUC5 (141)), and UMUC11 (14E).
Synergy was measured across the Chloroquinoxaline Sulfonamide titration with 1000 nM Compound A by Bliss Independence analysis.

[4] = SPLAM 0.04 nM, alone or + 1 uM Cmpd A
[5] = SPLAM 0.1 nM, alone or + 1 uM Cmpd A
[6] = SPLAM 0.2 nM, alone or + 1 uM Cmpd A
[7] = SPLAM 0.3 nM, alone or + 1 uM Cmpd A
[8] = SPLAM 0.6 nM, alone or + 1 uM Cmpd A
[9] = SPLAM 1.2 nM, alone or + 1 uM Cmpd A
[10] = SPLAM 2.4 nM, alone or + 1 uM Cmpd A
[11] = SPLAM 4.9 nM, alone or + 1 uM Cmpd A
[12] = SPLAM 9.8 nM, alone or + 1 uM Cmpd A
[13] = SPLAM 19.5 nM, alone or + 1 uM Cmpd A
[14] = SPLAM 39.1 nM, alone or + 1 uM Cmpd A
[15] = SPLAM 78.1 nM, alone or + 1 uM Cmpd A
[16] = SPLAM 156.3 nM, alone or + 1 uM Cmpd A
[17] = SPLAM 312.5 nM, alone or + 1 uM Cmpd A
[18] = SPLAM 625 nM, alone or + 1 uM Cmpd A
[19] = SPLAM 1250 nM, alone or + 1 uM Cmpd A
[20] = SPLAM 2500 nM, alone or + 1 uM Cmpd A
[21] = SPLAM 5000 nM, alone or + 1 uM Cmpd A
[22] = SPLAM 10000 nM, alone or + 1 uM Cmpd A
[23] = SPLAM 20000 nM, alone or + 1 uM Cmpd A

Cc1ccc(NS(=O)(=O)c2cccc(C#N)c2)c2[nH]cc(C#N)c12 [Compound E7820, 3-cyano-N-(3-cyano-4-methyl-1H-indol-7-yl)benzenesulfonamide]
GDI [1, 4]: 100 | GDI [1, 5]: 100 | GDI [1, 6]: 100 | GDI [1, 7]: 100 | GDI [1, 8]: 100 | GDI [1, 9]: 100 | GDI [1, 10]: 100 | GDI [1, 11]: 100 | GDI [1, 12]: 100 | GDI [1, 13]: 100 | GDI [1, 14]: 100 | GDI [1, 15]: 100 | GDI [1, 16]: 100 | GDI [1, 17]: 100 | GDI [1, 18]: 100 | GDI [1, 19]: 100 | GDI [1, 20]: 100 | GDI [1, 21]: 92 | GDI [1, 22]: 91 | GDI [1, 23]: 78 | GDI [2, 4]: 100 | GDI [2, 5]: 100 | GDI [2, 6]: 100 | GDI [2, 7]: 100 | GDI [2, 8]: 100 | GDI [2, 9]: 100 | GDI [2, 10]: 100 | GDI [2, 11]: 100 | GDI [2, 12]: 100 | GDI [2, 13]: 100 | GDI [2, 14]: 100 | GDI [2, 15]: 100 | GDI [2, 16]: 100 | GDI [2, 17]: 82 | GDI [2, 18]: 54 | GDI [2, 19]: 32 | GDI [2, 20]: 21 | GDI [2, 21]: 11 | GDI [2, 22]: 8 | GDI [2, 23]: 5 | GDI ([3]; SPLAM 0.04 nM): 97 | GDI ([3]; SPLAM 0.1 nM): 100 | GDI ([3]; SPLAM 0.2 nM): 99 | GDI ([3]; SPLAM 0.3 nM): 100 | GDI ([3]; SPLAM 0.6 nM): 100 | GDI ([3]; SPLAM 1.2 nM): 100 | GDI ([3]; SPLAM 2.4 nM): 100 | GDI ([3]; SPLAM 4.9 nM): 100 | GDI ([3]; SPLAM 9.8 nM): 100 | GDI ([3]; SPLAM 19.5 nM): 100 | GDI ([3]; SPLAM 39.1 nM): 100 | GDI ([3]; SPLAM 78.1 nM): 100 | GDI ([3]; SPLAM 156.3 nM): 100 | GDI ([3]; SPLAM 312.5 nM): 28 | GDI ([3]; SPLAM 625 nM): −7** | GDI ([3]; SPLAM 1250 nM): −37** | GDI ([3]; SPLAM 2500 nM): −56** | GDI ([3]; SPLAM 5000 nM): −47** | GDI ([3]; SPLAM 10000 nM): −70** | GDI ([3]; SPLAM 20000 nM): −59**

Nc1nc(=O)n(-c2ccccc2Cl)c2nc(C(F)(F)F)ccc12 [Compound A]
GDI (growth death index), single agent Cmpd A ([1]; Table 17B): 84 | GDI (growth death index), single agent Cmpd A ([1]; Table 19B): 84 | GDI ([1]; single agent Cmpd A, 1000 nM): 84 | GDI (growth death index), single agent Cmpd A ([2]; Table 17A): 100 | GDI (growth death index), single agent Cmpd A ([2]; Table 19A): 100 | GDI ([2]; single agent Cmpd A, 1000 nM): 100 | GDI (growth death index), single agent Cmpd A ([3]; Table 16B): 100 | GDI (growth death index), single agent Cmpd A ([3]; Table 18B): 100

NS(=O)(=O)c1ccc(S(=O)(=O)Nc2cccc3c(Cl)c[nH]c23)cc1 [Indisulam, N-(3-chloro-1H-indol-7-yl)benzene-1,4-disulfonamide]
GDI [1, 4]: 100 | GDI [1, 5]: 100 | GDI [1, 6]: 100 | GDI [1, 7]: 100 | GDI [1, 8]: 100 | GDI [1, 9]: 100 | GDI [1, 10]: 100 | GDI [1, 11]: 100 | GDI [1, 12]: 100 | GDI [1, 13]: 100 | GDI [1, 14]: 100 | GDI [1, 15]: 100 | GDI [1, 16]: 100 | GDI [1, 17]: 100 | GDI [1, 18]: 100 | GDI [1, 19]: 100 | GDI [1, 20]: 100 | GDI [1, 21]: 100 | GDI [1, 22]: 86 | GDI [1, 23]: 70 | GDI [2, 4]: 95 | GDI [2, 5]: 100 | GDI [2, 6]: 100 | GDI [2, 7]: 100 | GDI [2, 8]: 100 | GDI [2, 9]: 100 | GDI [2, 10]: 100 | GDI [2, 11]: 100 | GDI [2, 12]: 100 | GDI [2, 13]: 100 | GDI [2, 14]: 100 | GDI [2, 15]: 100 | GDI [2, 16]: 100 | GDI [2, 17]: 97 | GDI [2, 18]: 45 | GDI [2, 19]: 25 | GDI [2, 20]: 12 | GDI [2, 21]: 6 | GDI [2, 22]: 6 | GDI [2, 23]: 2 | GDI ([3]; SPLAM 0.04 nM): 100 | GDI ([3]; SPLAM 0.1 nM): 98 | GDI ([3]; SPLAM 0.2 nM): 94 | GDI ([3]; SPLAM 0.3 nM): 100 | GDI ([3]; SPLAM 0.6 nM): 100 | GDI ([3]; SPLAM 1.2 nM): 100 | GDI ([3]; SPLAM 2.4 nM): 100 | GDI ([3]; SPLAM 4.9 nM): 100 | GDI ([3]; SPLAM 9.8 nM): 100 | GDI ([3]; SPLAM 19.5 nM): 100 | GDI ([3]; SPLAM 39.1 nM): 100 | GDI ([3]; SPLAM 78.1 nM): 100 | GDI ([3]; SPLAM 156.3 nM): 100 | GDI ([3]; SPLAM 312.5 nM): 34 | GDI ([3]; SPLAM 625 nM): −3** | GDI ([3]; SPLAM 1250 nM): −33** | GDI ([3]; SPLAM 2500 nM): −61** | GDI ([3]; SPLAM 5000 nM): −56** | GDI ([3]; SPLAM 10000 nM): −58** | GDI ([3]; SPLAM 20000 nM): −60**
